Reference: patent EP4471048A1, “PEPTIDE INHIBITORS OF INTERLEUKIN-23 RECEPTOR” (Zealand Pharma A/S, priority 2023, dated 2024)
Where two headings read alike, the source gives them in different places.

What was measured:
[1] = molecular target: T1, human IL-23R (Homo sapiens, UniProt Q5VWK5); test: biochemical
T1 sequence (Q5VWK5 22-629): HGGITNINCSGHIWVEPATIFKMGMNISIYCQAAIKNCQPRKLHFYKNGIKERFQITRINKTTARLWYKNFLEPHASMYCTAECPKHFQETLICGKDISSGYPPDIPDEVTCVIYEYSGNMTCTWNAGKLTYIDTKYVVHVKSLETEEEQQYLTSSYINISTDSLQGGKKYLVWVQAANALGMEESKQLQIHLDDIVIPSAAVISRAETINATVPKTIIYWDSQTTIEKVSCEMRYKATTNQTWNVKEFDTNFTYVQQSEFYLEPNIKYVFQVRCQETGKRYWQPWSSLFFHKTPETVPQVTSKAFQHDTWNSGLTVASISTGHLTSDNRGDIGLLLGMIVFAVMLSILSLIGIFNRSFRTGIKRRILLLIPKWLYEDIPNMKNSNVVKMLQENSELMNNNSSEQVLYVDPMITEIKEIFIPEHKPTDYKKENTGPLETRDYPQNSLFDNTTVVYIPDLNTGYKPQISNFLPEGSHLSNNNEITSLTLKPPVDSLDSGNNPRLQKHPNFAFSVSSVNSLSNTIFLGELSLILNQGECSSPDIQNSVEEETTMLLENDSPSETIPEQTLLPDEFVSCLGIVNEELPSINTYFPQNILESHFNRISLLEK
How it was run: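 Membranes from HEK293 cells stably expressing Nluc-tagged human IL-23R were incubated 2 h at room temperature with test compound and a fluorophore-labelled tracer. After substrate addition, loss of BRET (TAMRA over luciferase emission) reported tracer displacement. A 4PL fit gave IC50 values.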

[2] = molecular target: IL-23 mediated signalling (Homo sapiens, UniProt Q5VWK5); test: Functional inhibition of IL-23 mediated STAT3 signalling (phospho-STAT3 MSD) in DB cells; assay type: cell-based; settings: for Emax: maximal inhibitory response, read-out: hIL-23 (pSTAT3) antagonist % inhibition
How it was run: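 DB cells preincubated with inhibitor 15 min at 37 °C, then stimulated 90 min with EC80 human IL-23; lysate phospho-STAT3 measured by MSD electrochemiluminescence. Signal normalized to IL-23-alone and buffer controls; IC50 and maximal % inhibition from 4-parameter logistic fit.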

[3] = Peptide stability in simulated intestinal fluid (SIF); assay type: in vitro ADME; settings: 37 °C, porcine pancreatin; for remaining at 1 h, 10 µM / remaining at 4 h, 10 µM: pig; for remaining at 4 h, 10 µM / SIF (% remaining 4 h): pH 6.8, 4 h
How it was run: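 Peptides were incubated at 37 °C with gentle shaking in pH 6.8 potassium phosphate SIF containing porcine pancreatin (10 g/L). Supernatants were analysed by LC-HRMS. Percent remaining at each timepoint, including 4 h, was calculated relative to time zero from absolute peak areas.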

[4] = Peptide stability in simulated gastric fluid (SGF); assay type: in vitro ADME; settings: 37 °C, porcine pepsin; for remaining at 1 h, 10 µM / remaining at 4 h, 10 µM: pig, simulated gastric fluid (SGF) with porcine pepsin (3.2 g/L), pH 1.2, 10 µM; for remaining at 1 h, 10 µM: read-out: SGF (% remaining 1 h); for remaining at 4 h, 10 µM: read-out: SGF (% remaining 4 h)
How it was run: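 Peptide incubated at 37 °C with gentle shaking in SGF (NaCl, pH 1.2). Samples centrifuged, diluted and analysed by LC-HRMS; percent remaining at each timepoint from absolute peak areas relative to time zero, with 4 h as the reference point.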

[5] = Table 3-2, DB cells, hIL-23 at EC80
[6] = SAR tables 2-1 to 2-7, DB cells, hIL-23 at EC80, read-out: IC50 (pSTAT3)
[7] = SAR tables, % peptide remaining, read-out: SIF (% after 4 h)

Row | Compound | % displacement (hIL-23R NIuc) [1] | IC50 [1] | Emax [2, 5] | remaining at 1 h, 10 µM ([3]; pH 6.8, 1 h) | remaining at 1 h, 10 µM ([4]; pH 1.2, 1 h) | remaining at 4 h, 10 µM ([4]; pH 1.2, 4 h) | IC50 ([2]; Table 3-2, DB cells, hIL-23 at EC80, read-out: hIL-23 (pSTAT3) antagonist IC50) | SIF (% remaining 1 h) ([3]; 10 µM, pH 6.8, 1 h) | SIF (% remaining 4 h) ([3]; 10 µM) | SGF (% remaining 1 h) ([4]; 10 µM, pH 1.2, 1 h) | SGF (% remaining 4 h) ([4]; 10 µM, pH 1.2, 4 h) | IC50 [2, 6] | remaining at 4 h, 10 µM [3, 7] | Emax ([1]; read-out: % displacement (hIL-23R NIuc)) | Ki [1] | IC50 [2] | remaining at 4 h, 10 µM ([3]; read-out: SIF (% remaining 4 h))
1 | CC(C)C[C@]1(C)NC(=O)[C@H](Cc2ccc3ccccc3c2)NC(=O)[C@H](Cc2ccc(OCCN)cc2)NC(=O)[C@@H]2CCNC(=O)CC[C@H](NC(=O)[C@H](CO)NC(=O)Cc3ccc(cc3)CNC(=O)CC[C@@H](C(=O)N[C@@H](CCN)C(=O)N[C@@H](Cc3cccnc3)C(N)=O)NC1=O)C(=O)N[C@@H](Cc1c[nH]c3ccccc13)C(=O)N[C@@H](CCC(N)=O)C(=O)N2 [Ref 122, [4-Aminomethyl-phenylacetyl](1c)*SE(2c)WQ[Dab](2c)[Y(2-aminoethoxy)][2-Nal][2-Me-Leu]E(1 c)[Dab][3-(3-Pyridyl)-Ala]-[NH2], reference compound] | 97% | 0.0066 nM | 99% | 73% | 92% | 90% |  |  |  |  |  |  |  |  | 0.00541 nM | 0.028 nM | 25%
2 | CNC(=O)[C@H](Cc1cccnc1)NC(=O)[C@H](CCN)NC(=O)[C@@H]1CCC(=O)NCCCC[C@@H]2NC(=O)CC[C@H](NC(=O)[C@H](CCC(N)=O)NC(=O)[C@H](Cc3c[nH]c4ccccc34)NC(=O)CNC2=O)C(=O)N[C@@H](Cc2ccc(OCCN)cc2)C(=O)N[C@@H](Cc2ccc3ccccc3c2)C(=O)N[C@@](C)(CC(C)C)C(=O)N1 [Compound 44, K(1c)(6c)^†GWQE(6c)[Y(2-aminoethoxy)][2-Nal][2-Me-Leu]E(1c)[Dab][3-(3-Pyridyl)-Ala]-[NHMe]] | 100% | 4 nM | 100% | 77% | 100% | 101% |  |  | 5% |  |  | 15 nM | 5% |  |  |  | 
3 | CNC(=O)[C@H](Cc1cccnc1)NC(=O)[C@H](CCN)NC(=O)[C@@H]1CCC(=O)NCCCC[C@@H]2NC(=O)CC[C@H](NC(=O)[C@H](CCC(N)=O)NC(=O)[C@H](Cc3c[nH]c4ccccc34)NC(=O)CCNC2=O)C(=O)N[C@@H](Cc2ccc(OCCN)cc2)C(=O)N[C@@H](Cc2ccc3ccccc3c2)C(=O)N[C@@](C)(CC(C)C)C(=O)N1 [Compound 45, K(1c)(6c)^†[3-Aminopropanoyl]WQE(6c)[Y(2-aminoethoxy)][2-Nal][2-Me-Leu]E(1c)[Dab][3-(3-Pyridyl)-Ala]-[NHMe]] | 100% | 0.022 nM | 100% | 90% | 98% | 103% |  |  | 87% |  |  | 0.058 nM | 87% |  |  |  | 

Second part, led by results:

Row | % displacement (hIL-23R NIuc) [1] | IC50 [1] | Emax [2, 5] | remaining at 1 h, 10 µM ([3]; pH 6.8, 1 h) | remaining at 1 h, 10 µM ([4]; pH 1.2, 1 h) | remaining at 4 h, 10 µM ([4]; pH 1.2, 4 h) | IC50 ([2]; Table 3-2, DB cells, hIL-23 at EC80, read-out: hIL-23 (pSTAT3) antagonist IC50) | SIF (% remaining 1 h) ([3]; 10 µM, pH 6.8, 1 h) | SIF (% remaining 4 h) ([3]; 10 µM) | SGF (% remaining 1 h) ([4]; 10 µM, pH 1.2, 1 h) | SGF (% remaining 4 h) ([4]; 10 µM, pH 1.2, 4 h) | IC50 [2, 6] | remaining at 4 h, 10 µM [3, 7] | Emax ([1]; read-out: % displacement (hIL-23R NIuc)) | Compound | Ki [1] | IC50 [2] | remaining at 4 h, 10 µM ([3]; read-out: SIF (% remaining 4 h))
4 |  | > 1000 nM | 23% |  |  |  | > 1000 nM | 0% | 0% | 99% | 99% |  |  |  | CSCC[C@H](NC(=O)[C@@H]1CSCC(=O)CSC[C@H](NC(=O)[C@@H](N)CCC(=O)O)C(=O)N[C@@H](Cc2c[nH]c3ccccc23)C(=O)N[C@@H](CC(C)C)C(=O)N[C@H]2CSCC(=O)CSC[C@H](NC(=O)[C@H](CC(N)=O)NC(=O)[C@H](CCCNC(=N)N)NC(=O)[C@H](Cc3ccc(O)cc3)NC(=O)[C@H](Cc3ccc(O)cc3)NC2=O)C(=O)N[C@@H](CC(N)=O)C(=O)N1)C(N)=O (single isomer, unassigned) [I4 (isomer 3), H-EC(4a)WLC(5a)YYRNC(5a)NC(4a)M-[NH2], reference compound] | > 1000 nM |  | 
5 |  | 0.024 nM | 100% | 74% | 104% | 101% |  |  | 42% |  |  | 0.014 nM | 42% | 101% | CNC(=O)[C@H](Cc1cccnc1)NC(=O)[C@H](CCN)NC(=O)[C@@H]1CCC(=O)NCCCC[C@H]2CC(=O)NCC(=O)N[C@@H](Cc3c[nH]c4ccccc34)C(=O)N[C@@H](CCC(N)=O)C(=O)N[C@@H](CCC(=O)N2)C(=O)N[C@@H](Cc2ccc(OCCN)cc2)C(=O)N[C@@H](Cc2ccc3ccccc3c2)C(=O)N[C@@](C)(CC(C)C)C(=O)N1 [Compound 99, [beta-hLys](1c)(6c)^†GWQE(6c)[Y(2-aminoethoxy)][2-Nal][2-Me-Leu]E(1c)[Dab][3-(3-Pyridyl)-Ala]-[NHMe]] |  |  | 
